What all share (assay type): ADME
Data set [1] can be described thus: GSH reactivity in pH 7.4 phosphate buffer assessed as change in gibbs free energy at 1 uM in presence of glutathione measured up to 120 mins by LC/MS analysis. As to conditions: pH 7.4, 2 h.
Data set [2] can be described thus: GSH reactivity in pH 7.4 phosphate buffer assessed as pseudo first-order rate constant at 1 uM in presence of glutathione measured up to 120 mins by LC/MS analysis. Particulars: pH 7.4, 2 h.
Data set [3] can be described thus: GSH reactivity in pH 7.4 phosphate buffer assessed as half life at 1 uM in presence of glutathione measured up to 120 mins by LC/MS analysis. As to conditions: phosphate buffer with glutathione.

Our source for the deltaG, K and half-life values is ChEMBL document CHEMBL4665833, “Systematic Study of the Glutathione Reactivity of N-Phenylacrylamides: 2. Effects of Acrylamide Substitution” (J Med Chem, 2020).

As for `C=CC(=O)Nc1ccccc1`, the deltaG in data set [1] is on record as 24.1 kcal/mol. On the same count and under the same terms, the result for `CN(C)C/C=C/C(=O)Nc1ccccc1` reads 23.9 kcal/mol.

With `C=C(Cl)C(=O)Nc1ccccc1`, the deltaG in data set [1] is 21.6 kcal/mol. Also, in data set [2], the K is 231 10^-3/min. Further, the half-life at 1 µM in data set [3] came out at 3 min. In the case of `O=C(/C=C/CN1CCCC1)Nc1ccccc1`, in data set [1], the deltaG turned out to be 24.1 kcal/mol. Regarding `CN(C/C=C/C(=O)Nc1ccccc1)CCF`, the K in data set [2] is 2.13 10^-3/min. Moreover, the half-life at 1 µM in data set [3] was 326 min. On to `O=C(/C=C/CN1CC(F)C1)Nc1ccccc1`, for which, in data set [2], the K was < 1.35 10^-3/min.

For the molecule `CN(C)CC/C=C/C(=O)Nc1ccccc1`, the deltaG in data set [1] is 24.7 kcal/mol.

Regarding `CCN(CC)C/C=C/C(=O)Nc1ccccc1`, in data set [1], the deltaG was 24.1 kcal/mol.

On to `C=C(C(=O)Nc1ccccc1)C(F)(F)F`, for which, in data set [1], the deltaG is recorded as 22.6 kcal/mol. Same read-out and setting: the figure for `O=C(/C=C/CN1CC(F)(F)C(F)(F)C1)Nc1ccccc1` is greater than 24.7 kcal/mol; for `C=C(CN(C)C)C(=O)Nc1ccccc1` it is less than 21.4 kcal/mol. For `O=C(/C=C/C(F)F)Nc1ccccc1`, the deltaG in data set [1] came out at 23.3 kcal/mol.

The half-life is the time in which the quantity being followed falls by half.
